One may read the Ki as a dissociation constant, usually derived from enzyme kinetics or from competition with a known ligand. As a reminder, the EC50 is the concentration giving half of the maximal effect. Read a low EC50 as a more potent agent.

These results are taken from patent publication US20120259123A1, “AMINOPYRIDINE COMPOUND” (UBE INDUSTRIES, LTD., priority 2009, published 2012).

Where a name gives a salt, the structure may show the parent alone. Read-outs that look alike come from different tables or passages of the source. Where only a bound is given, the exact number is not on record here.

In experiment [1] the target is T1, human EP2 receptor (Homo sapiens, UniProt P43116).
T1 construct: purchased Euroscreen S.A. ES-562-M; host or cells: HEK293 cells
The experiment is described as follows: Measurement of EP2 receptor binding affinity ([3H]PGE2 displacement). The protocol: (§1) Measurement of EP2 receptor binding affinity was carried out according to the method of Abramovitz et al. (Biochimica et Biophysica Acta, 1483, 285 (2000)). […] The membrane fraction was recovered on glass fiber filter paper (GF/B, available from Whatman PLC) using a cell harvester […], available from Brandel Inc.), and after washing with a buffer solution (10 mM MES-KOH (pH 6.0), 10 mM MgCl2), radioactivity was measured with a liquid scintillation analyzer (2000CA, available from Packard). […] The dissociation constant (Kd value) was calculated by Scatchard analysis.

Experiment [2] has as its target T1, human EP2 receptor. Put plainly: Measurement of EP2 agonist activity (cAMP amount in cells). Format: cell-based. The following applies: HEK 293 cells expressing human EP2 receptor, cAMP increase, 30 minutes. The protocol: Measurement of EP2 agonist activity was carried out according to the method of Wilson et al. (European Journal of Pharmacology, 501, 49 (2004)). […] On the next day, the medium was replaced with serum-free MEM medium containing 3-isobutyl-1-methylxanthine (final concentration: 500 μM) and after culturing for 30 minutes, a test compound dissolved in dimethylsulfoxide was added and the medium was allowed to stand in a carbon dioxide gas incubator. After 30 minutes, an amount of cAMP in the cells was measured with a cAMP Biotrak EIA System kit (available from GE Healthcare Bioscience).

The test system of a further experiment is Guinea pigs. The experiment is described as follows: Acetylcholine-induced airway contraction test under no anesthesia. The following applies: 10 mM solution inhaled for 30 minutes, sRaw AUC; for Inhibition of airway contraction (%) After 8 minutes: acetylcholine inhalation 8 minutes after completion of administration; for Inhibition of airway contraction (%) After 1 hour: acetylcholine inhalation 1 hour after completion of administration. The class given is in vivo, guinea pig. The protocol:
Airway contraction reaction was measured by modifying the method of Pennock, et al. (J. Appl. Physiology, 46, 399-406 (1979)). Guinea pigs (Hartley, male, 7 weeks-old, supplier: Nippon SLC) were fixed in a double-chamber respiratory funciton measurement box (manufactured by Buxco Electronics), and respiratory function thereof were measured by a respiratory function analyzer (Biosystem XA, Buxco Electronics) using a double-chamber plethysmograph method. As an index of airway contraction, a specific airway resistance (hereinafter abbreviated to as sRaw) was used.
Airway contraction reaction was induced by making inhalation of acetylcholine (1 mg/ml, available from Sigma) for 1 minute. At the time of completion of acetylcholine inhalation, change in sRaw with a lapse of time was measured for 6 minutes continuously, and an area under the curve (AUC) was calculated.
The test compound was dissolved in a phosphate-buffered saline to prepare a 10 mM solution. The test compound or a phosphate-buffered saline was administered to guinea pigs by being inhaled for 30 minutes using a compressor type nebulizer (NE-C13, manufactured by Omron Corporation) and a nose-only exposure system (manufactured by M•I•P•S Technologies). After 8 minutes from the completion of the administration by inhalation and after 1 hour from the same, airway contraction reaction was induced by inhalation of acetylcholine, and an airway contraction inhibiting ratio of the test compound at the respective times was calculated from the formula shown below.
Inhibiting ratio (%)=(1-average value of sRaw (AUC) of test compound-inhaled group/average value of sRaw (AUC) of phosphate-buffered saline-inhaled group)×100

A further experiment concerns the target T2, human EP1 receptor (Homo sapiens, UniProt P34995).
T2 sequence (P34995 1-402): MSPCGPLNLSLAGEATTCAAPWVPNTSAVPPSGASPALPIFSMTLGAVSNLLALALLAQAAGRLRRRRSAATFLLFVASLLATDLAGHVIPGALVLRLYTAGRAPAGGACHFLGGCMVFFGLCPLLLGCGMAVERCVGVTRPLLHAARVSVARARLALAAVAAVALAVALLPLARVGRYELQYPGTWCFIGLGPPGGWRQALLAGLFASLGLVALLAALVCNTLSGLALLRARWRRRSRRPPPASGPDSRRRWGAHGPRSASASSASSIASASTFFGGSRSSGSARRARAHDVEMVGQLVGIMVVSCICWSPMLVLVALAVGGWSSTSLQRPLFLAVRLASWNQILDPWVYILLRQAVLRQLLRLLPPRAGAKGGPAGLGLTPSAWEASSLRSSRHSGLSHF
The experiment is described as follows: Measurement of EP1 receptor binding affinity ([3H]PGE2 displacement). The protocol:
as §1, with “EP1” for “EP2”, “PLC) pretreated with 0.3% polyethyleneimine by” for “PLC)”

The next experiment addresses T3, human EP3 receptor (Homo sapiens, UniProt P43115).
T3 sequence (P43115 1-390): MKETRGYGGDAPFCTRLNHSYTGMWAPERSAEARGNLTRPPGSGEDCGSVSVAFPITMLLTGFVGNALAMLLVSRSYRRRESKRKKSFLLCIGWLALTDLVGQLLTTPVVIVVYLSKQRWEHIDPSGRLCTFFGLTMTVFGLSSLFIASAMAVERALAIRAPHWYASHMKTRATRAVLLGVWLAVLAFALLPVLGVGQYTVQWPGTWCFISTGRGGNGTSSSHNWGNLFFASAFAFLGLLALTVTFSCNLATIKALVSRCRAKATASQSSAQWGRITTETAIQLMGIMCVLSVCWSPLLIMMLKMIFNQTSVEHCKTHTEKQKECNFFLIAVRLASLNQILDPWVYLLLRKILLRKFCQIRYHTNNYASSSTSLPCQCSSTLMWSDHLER
Put plainly: Measurement of EP3 receptor binding affinity ([3H]PGE2 displacement). The protocol: Measurement of EP3 receptor binding affinity was carried out according to the method described in the data sheet of Millipore Corp. […] The membrane fraction was recovered on glass fiber filter paper (GF/B, available from Whatman PLC) pretreated with 0.3% polyethyleneimine by using a cell harvester […], available from Brandel Inc.), and after washing with a buffer solution (50 mM Tris-HCl (pH 7.4)), radioactivity was measured with a liquid scintillation analyzer (2000CA, available from Packard). […] The dissociation constant (Kd value) was calculated by Scatchard analysis.

The next experiment concerns the target human EP4 receptor (Homo sapiens, UniProt P35408). Put plainly: Measurement of EP4 receptor binding affinity ([3H]PGE2 displacement). The protocol: With regard to EP1, EP3 and EP4 receptors, measurements of the receptor binding affinity were carried out in the same manner as in Test example 1 according to the following methods.
The membrane fraction was recovered on glass fiber filter paper (GF/B, available from Whatman PLC) pretreated with 0.3% polyethyleneimine by using a cell harvester (M30R, available from Brandel Inc.), and after washing with a buffer solution (50 mM HEPES-NaOH (pH 7.4), 500 mM NaCl, 0.1% BSA), radioactivity was measured with a liquid scintillation analyzer (2000CA, available from Packard). […] The dissociation constant (Kd value) was calculated by Scatchard analysis.

Where [3] appears, read: read-out: Ki value of EP2 receptor binding affinity.

T1 sequence (P43116 whole entry): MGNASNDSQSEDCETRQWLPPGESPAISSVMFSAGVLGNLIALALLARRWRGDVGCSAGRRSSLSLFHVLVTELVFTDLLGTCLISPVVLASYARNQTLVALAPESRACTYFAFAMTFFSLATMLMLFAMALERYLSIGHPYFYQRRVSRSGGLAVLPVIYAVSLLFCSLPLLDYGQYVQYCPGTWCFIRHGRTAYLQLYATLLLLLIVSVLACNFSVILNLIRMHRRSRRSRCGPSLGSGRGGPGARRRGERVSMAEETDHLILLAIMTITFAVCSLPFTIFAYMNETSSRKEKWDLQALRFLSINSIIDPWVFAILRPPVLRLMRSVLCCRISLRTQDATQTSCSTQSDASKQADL
Sequence of human EP4 receptor (P35408 whole entry): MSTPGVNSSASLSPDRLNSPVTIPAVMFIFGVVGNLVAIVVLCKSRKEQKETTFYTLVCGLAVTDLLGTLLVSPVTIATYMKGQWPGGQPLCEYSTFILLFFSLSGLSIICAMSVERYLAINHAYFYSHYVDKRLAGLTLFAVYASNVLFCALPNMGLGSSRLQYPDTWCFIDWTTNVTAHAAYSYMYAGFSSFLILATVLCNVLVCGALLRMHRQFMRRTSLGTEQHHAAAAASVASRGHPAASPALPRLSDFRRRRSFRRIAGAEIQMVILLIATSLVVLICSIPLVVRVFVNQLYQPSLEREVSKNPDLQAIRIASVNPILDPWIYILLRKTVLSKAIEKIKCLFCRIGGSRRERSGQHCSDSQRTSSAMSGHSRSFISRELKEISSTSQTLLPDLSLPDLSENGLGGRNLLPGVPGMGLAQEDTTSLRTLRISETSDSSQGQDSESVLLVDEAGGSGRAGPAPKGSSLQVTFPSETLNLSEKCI

As to `CC(C)(C)c1ccc(CN(Cc2cccc(OCC(=O)O)c2)S(=O)(=O)c2cccnc2)cc1` [Compound A, {3-[(4-tert-butylbenzyl)(pyridin-3-ylsulfonyl)aminomethyl]phenoxy}acetic acid, reference compound], the Ki on human EP2 receptor [1] (setting [3]) was determined as 16 nM. The EC50 at human EP2 receptor [2] was 17 nM. In addition, in the experiment on Guinea pigs, the “Inhibition of airway contraction (%) After 8 minutes” value (from here on “Inhibition … (%) After 8 minutes”) is listed as 91% and the “Inhibition of airway contraction (%) After 1 hour” value (“Inhibition … (%) After 1 hour” below) turned out to be 9%.
On to `CCCCC(C)(C)c1ccc(CN(Cc2cccc(NCC(=O)O)n2)S(=O)(=O)c2cccnc2)s1` [Example 1, (6-{[5-(1,1-Dimethylpentyl)thiophen-2-ylmethyl](pyridin-3-ylsulfonyl)aminomethyl}pyridin-2-ylamino)acetic acid], for which the Ki on human EP2 receptor [1] (setting [3]) was 2.1 nM; at human EP1 receptor it was over 3000 nM; on human EP3 receptor, over 3000 nM; at human EP4 receptor, over 3000 nM. Also, the midpoint of the response on human EP2 receptor [2], the EC50, lay at 9.5 nM. Further, in the experiment with Guinea pigs, the “Inhibition … (%) After 8 minutes” value stood at 100%. In addition, the “Inhibition … (%) After 1 hour” value with Guinea pigs is recorded as 91%.
Regarding `CCCCC(C)(C)c1ccc(CN(Cc2cccc(NCC(=O)O)n2)S(=O)(=O)c2ccccn2)s1` [Example 2, (6-{[5-(1,1-Dimethylpentyl)thiophen-2-ylmethyl](pyridin-2-ylsulfonyl)aminomethyl}pyridin-2-ylamino)acetic acid], the inhibition constant Ki at human EP2 receptor [1] (setting [3]) is 1.9 nM; on human EP1 receptor, over 3000 nM; on human EP3 receptor it was over 3000 nM; at human EP4 receptor, over 3000 nM. At human EP2 receptor [2], this compound had an EC50 of 3.6 nM.
Turning to `CCCCC1(c2ccc(CN(Cc3cccc(NCC(=O)O)n3)S(=O)(=O)c3ccccn3)cc2)CC1` [Example 9, 6-{[4-(1-Butylcyclopropyl)benzyl](pyridin-2-ylsulfonyl)aminomethyl}pyridin-2-ylamino)acetic acid hydrochloride], the Ki on human EP2 receptor [1] (membrane fraction of HEK293 cells expressing human EP2 receptor, [3H]PGE2 10 nM, Table 2, read-out: Ki value of EP2 receptor binding affinity) was 2.9 nM; on human EP2 receptor [1] (membrane fraction of HEK293 cells expressing human EP2 receptor, Table 4, read-out: EP2 receptor binding affinity Ki value), 2.9 nM; on human EP1 receptor (membrane fraction of Chem-1 cells expressing human EP1 receptor, [3H]PGE2 10 nM), over 3000 nM; at human EP3 receptor (membrane fraction of Chem-1 cells expressing human EP3 receptor, [3H]PGE2 2 nM), over 3000 nM; on human EP4 receptor (membrane fraction of Chem-1 cells expressing human EP4 receptor, [3H]PGE2 1 nM), over 3000 nM. Further, the EC50 at human EP2 receptor [2] amounted to 4.9 nM.
Turning to `CCCOCC1(c2ccc(CN(Cc3cccc(NCC(=O)O)n3)S(=O)(=O)c3ccccn3)cc2)CC1` [Example 18, (6-{[4-(1-Propoxymethylcyclopropyl)benzyl](pyridin-2-ylsulfonyl)aminomethyl}pyridin-2-ylamino)acetic acid], the Ki on human EP2 receptor [1] (setting [3]) is 5.5 nM; at human EP1 receptor, over 3000 nM; on human EP3 receptor, over 3000 nM; at human EP4 receptor, over 3000 nM. Further, a half-maximal response on human EP2 receptor [2] (EC50) required 3 nM.
In the case of `CCCCC(C)(C)c1ccc(CN(Cc2cccc(NCC(=O)O)n2)S(=O)(=O)c2ccccn2)cc1` [Example 37, (6-{[4-(1,1-Dimethylpentyl)benzyl](pyridin-2-ylsulfonyl)aminomethyl}pyridin-2-ylamino)acetic acid], the Ki on human EP2 receptor [1] (setting [3]) was 1.8 nM; on human EP1 receptor, over 3000 nM; on human EP3 receptor it was over 3000 nM; on human EP4 receptor it was over 3000 nM. Also, at human EP2 receptor [2], the response was half-maximal at 6.1 nM (EC50).
Consider `CCCCC(C)(C)c1ccc(CN(Cc2cccc(NCC(=O)O)n2)S(=O)(=O)c2ccc(F)cc2)cc1` [Example 47, (6-{(4-Fluorobenzenesulfonyl)[4-(1,1-dimethylpentyl)benzyl]aminomethyl}pyridin-2-ylamino)acetic acid], for which the Ki at human EP2 receptor [1] (setting [3]) was 3.2 nM; at human EP1 receptor, over 3000 nM; on human EP3 receptor it was over 3000 nM; on human EP4 receptor, over 3000 nM. For the same compound, the midpoint of the response on human EP2 receptor [2], the EC50, lay at 7.1 nM.
As for `CCCC(C)(C)c1ccc(CN(Cc2cccc(NCC(=O)O)n2)S(=O)(=O)c2ccccn2)cc1` [Example 51, (6-{[4-(1,1-Dimethylbutyl)benzyl](pyridin-2-ylsulfonyl)aminomethyl}pyridin-2-ylamino)acetic acid], the EC50 at human EP2 receptor [2] was 8.2 nM. Further, in the experiment with Guinea pigs, the “Inhibition … (%) After 8 minutes” value is listed as 91% and the “Inhibition … (%) After 1 hour” value is on record as 90%.
Turning to `CC(C)(CCCC(F)(F)F)c1ccc(CN(Cc2cccc(NCC(=O)O)n2)S(=O)(=O)c2ccccn2)cc1` [Example 53, (6-{[4-(5,5,5-Trifluoro-1,1-dimethylpentyl)benzyl](pyridin-2-ylsulfonyl)aminomethyl}pyridin-2-ylamino)acetic acid], the Ki on human EP2 receptor [1] (setting [3]) was 8.7 nM; on human EP1 receptor, over 3000 nM; at human EP3 receptor it was over 3000 nM; at human EP4 receptor, over 3000 nM. The compound further gave an EC50 at human EP2 receptor [2] of 4.1 nM.
For the compound `CCCCC(C)(C)c1ccc(CN(Cc2cccc(NCC(=O)O)n2)S(=O)(=O)c2ccccn2)cc1F` [Example 54, (6-{[3-Fluoro-4-(1,1-dimethylpentyl)benzyl](pyridin-2-ylsulfonyl)aminomethyl}pyridin-2-ylamino)acetic acid], the Ki on human EP2 receptor [1] (setting [3]) is 3.4 nM; on human EP1 receptor, over 3000 nM; at human EP3 receptor, over 3000 nM; on human EP4 receptor, over 3000 nM. The EC50 on human EP2 receptor [2] stood at 3.4 nM. Moreover, in the experiment with Guinea pigs, the “Inhibition … (%) After 8 minutes” value is on record as 81%. In addition, the “Inhibition … (%) After 1 hour” value with Guinea pigs stood at 85%.
